Assay results taken from the NIST ThermoML archive (doi:10.1016/j.jct.2014.05.014).

Assay: cn = amount concentration of the nth substance listed, in mol/dm3
Settings: 101.3 kPa, Liquid; for electrical conductivity: Alternating current cell with electrodes; for viscosity: Falling or rolling sphere viscometry; for mass density: Vibrating tube method

CC(N)C(=O)[O-].[Na+] (stereo not drawn) [sodium DL-alaninate] + O
Settings	electrical conductivity [S/m]	mass density [kg/m3]	viscosity [mPa·s]
303.15 K, c1 = 0.478	–	–	0.98
303.15 K, c1 = 0.498	2.82	1021.4	–
303.15 K, c1 = 0.985	–	1045.4	–
303.15 K, c1 = 0.99	4.45	–	–
303.15 K, c1 = 0.994	–	–	1.232
303.15 K, c1 = 1.485	5.36	–	–
303.15 K, c1 = 1.495	–	1069	1.579
303.15 K, c1 = 1.975	–	1090.8	2.011
303.15 K, c1 = 1.983	5.78	–	–
303.15 K, c1 = 2.467	–	1113.1	–
303.15 K, c1 = 2.476	5.77	–	–
303.15 K, c1 = 2.496	–	–	2.683
303.15 K, c1 = 3.032	–	–	3.708
303.15 K, c1 = 3.048	5.43	–	–
303.15 K, c1 = 3.063	–	1139.4	–
308.15 K, c1 = 0.478	–	–	0.877
308.15 K, c1 = 0.498	3.11	1019.6	–
308.15 K, c1 = 0.985	–	1043.4	–
308.15 K, c1 = 0.99	4.92	–	–
308.15 K, c1 = 0.994	–	–	1.099
308.15 K, c1 = 1.485	5.94	–	–
308.15 K, c1 = 1.495	–	1066.9	1.423
308.15 K, c1 = 1.975	–	1088.5	1.771
308.15 K, c1 = 1.983	6.45	–	–
308.15 K, c1 = 2.467	–	1110.7	–
308.15 K, c1 = 2.476	6.48	–	–
308.15 K, c1 = 2.496	–	–	2.341
308.15 K, c1 = 3.032	–	–	3.187
308.15 K, c1 = 3.048	6.17	–	–
308.15 K, c1 = 3.063	–	1136.8	–
313.15 K, c1 = 0.478	–	–	0.796
313.15 K, c1 = 0.498	3.42	1017.7	–
313.15 K, c1 = 0.985	–	1041.4	–
313.15 K, c1 = 0.99	5.41	–	–
313.15 K, c1 = 0.994	–	–	0.991
313.15 K, c1 = 1.485	6.54	–	–
313.15 K, c1 = 1.495	–	1064.7	1.243
313.15 K, c1 = 1.975	–	1086.1	1.574
313.15 K, c1 = 1.983	7.13	–	–
313.15 K, c1 = 2.467	–	1108.2	–
313.15 K, c1 = 2.476	7.22	–	–
313.15 K, c1 = 2.496	–	–	2.06
313.15 K, c1 = 3.032	–	–	2.765
313.15 K, c1 = 3.048	6.94	–	–
313.15 K, c1 = 3.063	–	1134	–
318.15 K, c1 = 0.478	–	–	0.721
318.15 K, c1 = 0.498	3.72	1015.7	–
318.15 K, c1 = 0.985	–	1039.3	–
318.15 K, c1 = 0.99	5.89	–	–
318.15 K, c1 = 0.994	–	–	0.895
318.15 K, c1 = 1.485	7.14	–	–
318.15 K, c1 = 1.495	–	1062.3	1.122
318.15 K, c1 = 1.975	–	1083.7	1.405
318.15 K, c1 = 1.983	7.82	–	–
318.15 K, c1 = 2.467	–	1105.5	–
318.15 K, c1 = 2.476	7.98	–	–
318.15 K, c1 = 2.496	–	–	1.821
318.15 K, c1 = 3.032	–	–	2.426
318.15 K, c1 = 3.048	7.72	–	–
318.15 K, c1 = 3.063	–	1131.3	–
323.15 K, c1 = 0.478	–	–	0.661
323.15 K, c1 = 0.498	4.04	1013.4	–
323.15 K, c1 = 0.985	–	1036.9	–
323.15 K, c1 = 0.99	6.38	–	–
323.15 K, c1 = 0.994	–	–	0.817
323.15 K, c1 = 1.485	7.76	–	–
323.15 K, c1 = 1.495	–	1059.8	1.014
323.15 K, c1 = 1.975	–	1081.1	1.268
323.15 K, c1 = 1.983	8.52	–	–
323.15 K, c1 = 2.467	–	1102.8	–
323.15 K, c1 = 2.476	8.73	–	–
323.15 K, c1 = 2.496	–	–	1.629
323.15 K, c1 = 3.032	–	–	2.146
323.15 K, c1 = 3.048	8.52	–	–
323.15 K, c1 = 3.063	–	1128.4	–
328.15 K, c1 = 0.478	–	–	0.606
328.15 K, c1 = 0.498	4.37	1011.1	–
328.15 K, c1 = 0.985	–	1034.5	–
328.15 K, c1 = 0.99	6.87	–	–
328.15 K, c1 = 0.994	–	–	0.75
328.15 K, c1 = 1.485	8.38	–	–
328.15 K, c1 = 1.495	–	1057.3	0.924
328.15 K, c1 = 1.975	–	1078.4	1.148
328.15 K, c1 = 1.983	9.22	–	–
328.15 K, c1 = 2.467	–	1100.2	–
328.15 K, c1 = 2.476	9.5	–	–
328.15 K, c1 = 2.496	–	–	1.467
328.15 K, c1 = 3.032	–	–	1.912
328.15 K, c1 = 3.048	9.33	–	–
328.15 K, c1 = 3.063	–	1125.4	–
333.15 K, c1 = 0.478	–	–	0.559
333.15 K, c1 = 0.498	4.68	1008.7	–
333.15 K, c1 = 0.985	–	1032	–
333.15 K, c1 = 0.99	7.37	–	–
333.15 K, c1 = 0.994	–	–	0.687
333.15 K, c1 = 1.485	8.99	–	–
333.15 K, c1 = 1.495	–	1054.6	0.847
333.15 K, c1 = 1.975	–	1075.7	1.047
333.15 K, c1 = 1.983	9.93	–	–
333.15 K, c1 = 2.467	–	1097.2	–
333.15 K, c1 = 2.476	10.3	–	–
333.15 K, c1 = 2.496	–	–	1.326
333.15 K, c1 = 3.032	–	–	1.718
333.15 K, c1 = 3.048	10.1	–	–
333.15 K, c1 = 3.063	–	1122.4	–
338.15 K, c1 = 0.478	–	–	0.52
338.15 K, c1 = 0.498	5.01	1006	–
338.15 K, c1 = 0.985	–	1029.3	–
338.15 K, c1 = 0.99	7.87	–	–
338.15 K, c1 = 0.994	–	–	0.638
338.15 K, c1 = 1.485	9.62	–	–
338.15 K, c1 = 1.495	–	1051.8	0.778
338.15 K, c1 = 1.975	–	1072.9	0.96
338.15 K, c1 = 1.983	10.7	–	–
338.15 K, c1 = 2.467	–	1094.3	–
338.15 K, c1 = 2.476	11	–	–
338.15 K, c1 = 2.496	–	–	1.206
338.15 K, c1 = 3.032	–	–	1.546
338.15 K, c1 = 3.048	11	–	–
338.15 K, c1 = 3.063	–	1119.4	–
343.15 K, c1 = 0.478	–	–	0.484
343.15 K, c1 = 0.498	5.34	1003.1	–
343.15 K, c1 = 0.985	–	1026.4	–
343.15 K, c1 = 0.99	8.38	–	–
343.15 K, c1 = 0.994	–	–	0.591
343.15 K, c1 = 1.485	10.2	–	–
343.15 K, c1 = 1.495	–	1049	0.729
343.15 K, c1 = 1.975	–	1069.9	0.881
343.15 K, c1 = 1.983	11.3	–	–
343.15 K, c1 = 2.467	–	1091.2	–
343.15 K, c1 = 2.476	11.8	–	–
343.15 K, c1 = 2.496	–	–	1.102
343.15 K, c1 = 3.032	–	–	1.408
343.15 K, c1 = 3.048	11.8	–	–
343.15 K, c1 = 3.063	–	1116.2	–
